For one assay, the system named is cultured microglia. Kind of assay: ELISA of BDNF protein in supernatant of cultured microglia. The assay is classed as cell-based, rat. To be noted: ATP stimulation; TNP-ATP 10 μM; supernatant 5 hours after treatment. Here is the method: Microglial cultures. Rat primary cultured microglia were prepared under standard conditions as described^2,21. In brief, mixed glial culture was prepared from neonatal Wistar rats and maintained for 10-16 days in DMEM medium with 10% fetal bovine serum. Microglia were separated from the primary culture by gentle shaking of the flask and replated on plastic dishes. The cells were removed from the dish surface using a cell scraper and collected in 100 μl of PBS; subsequently, the cell density of microglia was measured using a cell counter and the volume of PBS adjusted to give a final density of 1000 cells/10 μl. This method produces microglial cultures of >95% purity. For ATP-stimulation, the purified microglia were incubated with ATP (50 μM) for 1 hour. […]
For orientation: An ELISA detects its analyte on a solid surface through an enzyme-linked reagent.

Assay [1] has as its system rats with peripheral nerve injury. To be noted: literature (ref. 2), acting on P2X receptors in microglia; cited from earlier work.
Assay [2] has as its system LI neurons. Kind of assay: Eanion of LI neurons in spinal slices from PNI rats with bath-applied agents. To be noted: TNP-ATP 1 μM bath-applied, slices from allodynic rats two weeks after PNI. The assay is classed as cell-based, rat. As for the experimental part:
(§1) Peripheral nerve injury was induced by surgically implanting a polyethylene cuff (2 mm in length, inner diameter 0.7 mm) around the sciatic nerve of adult male Sprague-Dawley rats^3,17. For sham surgery, which was used as a control, animals had all surgical procedures exempt that the cuff was not implanted. The 50% withdrawal threshold, or 50% paw withdrawal threshold, to mechanical stimulation was assessed^3,18. […] In animals with peripheral nerve injury induced in this model, there was microglial activation in the spinal cord ipsilateral to the nerve cuff, as indicated by increased labeling for the microglial activation marker OX-42 (FIGS. 5B and 5C).
(§2) Slice preparation. Parasagittal slices (300-350 μm) of spinal cord were prepared from adult (>50 days old) male rats as previously described^31. Slices were continually superfused (2-3 ml min^−1) with artificial cerebrospinal fluid (ACSF) containing (in mM): 126 NaCl, 26 NaHCO3, 10 glucose, 2.5 KCl, 2 CaCl2, 2 MgCl2, 1.25 NaH2PO4 (bubbled with 95% O2/5% CO2, pH ˜7.4).
Recordings. For perforated-patch recordings, the pipette tip was filled with a solution containing (in mM): 130 potassium methyl sulphate (KMeSO4), 5 CsCl, 2 MgCl2, 11 BAPTA, 1 CaCl2, 4 ATP, 0.4 GTP, 10 HEPES (˜pH 7.4). […]

The next assay relates to naïve rats. Kind of assay: Paw withdrawal threshold (WD50) after intrathecal delivery to naïve rats. It counts as in vivo, rat. To be noted: for paw withdrawal threshold (WD50): intrathecal delivery to naïve/intact rats. As for the experimental part: as §1
Microglial cultures. Rat primary cultured microglia were prepared under standard conditions as described^2,21. In brief, mixed glial culture was prepared from neonatal Wistar rats and maintained for 10-16 days in DMEM medium with 10% fetal bovine serum. Microglia were separated from the primary culture by gentle shaking of the flask and replated on plastic dishes. The cells were removed from the dish surface using a cell scraper and collected in 100 μl of PBS; subsequently, the cell density of microglia was measured using a cell counter and the volume of PBS adjusted to give a final density of 1000 cells/10 μl. This method produces microglial cultures of >95% purity. For ATP-stimulation, the purified microglia were incubated with ATP (50 μM) for 1 hour.
Intrathecal injections and ELISA. At least three days before drug administration, rats were anaesthetized with sodium pentobarbital (65 mg kg^−1), and a lumbar spinal catheter (PE-10 polyethylene tube) was inserted into the intrathecal space^22. On recovery from surgery, lower-body paralysis was induced through intrathecal lidocaine (2%, 30 μl) injection to confirm proper catheter localization. […] At the doses used, none of the compounds produced motor disturbances or sedation, as assessed by grasping, righting and placing reflexes and behavioural observations^23. […]

The subject of assay [3] is LI neurons. Kind of assay: Eanion of LI neurons in spinal slices from naïve rats with bath-applied BDNF. To be noted: BDNF 50 ng/ml, >90 min. It counts as cell-based, rat. As for the experimental part: as §2
Recordings. For perforated-patch recordings, the pipette tip was filled with a solution containing (in mM): 130 potassium methyl sulphate (KMeSO4), 5 CsCl, 2 MgCl2, 11 BAPTA, 1 CaCl2, 4 ATP, 0.4 GTP, 10 HEPES (˜pH 7.4). The pipette was back-filled with this same solution supplemented with 25 μg ml^−1 gramicidin D [gramicidin stock was at 10 mg ml^−1 in dimethylsulphoxide (DMSO)]. Recordings in this mode were selected when access resistance was stable between 25-45 MΩ. For whole-cell voltage-clamp recordings, pipettes were filled with the above solution lacking gramicidin D. GABA was applied locally for 10-50 ms by pressure ejection through a micro-pipette. Data acquisition and analysis of PSCs were performed as previously described^19; membrane potential measurements were corrected as previously described^20. […] All measurements are given as means±SEM, except where indicated. […]

For `Nc1ncnc2c1ncn2[C@@H]1O[C@H](COP(=O)(O)OP(=O)(O)OP(=O)(O)O)[C@@H](O)[C@H]1O` [ATP], the “release of BDNF from microglia in culture” value in the assay with cultured microglia is given as “caused release of BDNF”.
Turning to TNP-ATP, the “nerve injury-induced tactile allodynia” value in assay [1] is reported as “reverse nerve injury-induced tactile allodynia”. The “release of BDNF from microglia in culture” value in the assay on cultured microglia was “blocked”. The “Eanion of LI neurons” value in the assay on LI neurons [2] is −59.3±1.8 mV.

B1: BDNF: brain-derived neurotrophic factor; recombinant human BDNF delivered intrathecally or bath-applied (protein, listed as Homo sapiens)
chain: MTILFLTMVISYFGCMKAAPMKEANIRGQGGLAYPGVRTHGTLESVNGPKAGSRGLTSLADTFEHVIEELLDEDQKVRPNEENNKDADLYTSRVMLSSQVPLEPPLLFLLEEYKNYLDAANMSMRVRRHSDPARRGELSVCDSISEWVTAADKKTAVDMSGGTVTVLEKVPVSKGQLKQYFYETKCNPMGYTKEGCRGIDKRHWNSQCRTTQSYVRALTMDSKKRIGWRFIRIDTSCVCTLTIKRGR
In the case of B1, the “paw withdrawal threshold (WD50)” value with naïve rats is “decrease in paw withdrawal threshold”; with naïve rats (listed as recombinant human BDNF) it was “significant and transient decrease in the WD50”. Further, the “time to significant decrease in WD50” value in the assay with naïve rats (recombinant human BDNF 20 μg intrathecal, intact rats) was not above 1 h. In the assay on LI neurons [3], the “Eanion of LI neurons vs control untreated slices” value is “significantly less negative”.
